Test results published in ChEMBL document CHEMBL4350955, “Novel Chemical Series of 5-Lipoxygenase-Activating Protein Inhibitors for Treatment of Coronary Artery Disease” (J Med Chem, 2019).
Values after ≈ are worked out from the molar mass of the structure shown.

How the values were obtained:
[1] = Distribution coefficient between octanol and sodium phosphate buffer, logD of the compound in pH 7.4 buffer by LC-MS/MS-based shake flask method
[2] = biological target: T1, Arachidonate 5-lipoxygenase-activating protein (Homo sapiens, UniProt P20292); assay: Inhibition of [3H]MK0591 binding to human FLAP expressed in […] cell membranes measured after 60 to 80 mins by scintillation counting method
T1 sequence (P20292 whole entry): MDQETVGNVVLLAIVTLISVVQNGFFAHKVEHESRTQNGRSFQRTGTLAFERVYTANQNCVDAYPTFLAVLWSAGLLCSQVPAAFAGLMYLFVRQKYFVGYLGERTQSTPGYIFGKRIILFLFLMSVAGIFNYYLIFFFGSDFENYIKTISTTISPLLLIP

[3] = biological target: T2, Arachidonate 5-lipoxygenase-activating protein (Homo sapiens) (UniProt P20292); assay: (§1) Inhibition of FLAP in human whole blood assessed as reduction in calcium ionophore-stimulated LTB4 production preincubated for 30 mins followed by calcium ionophore stimulation and measured after 20 mins by EIA; type: tissue-based
T2 sequence (whole entry): T1 sequence (P20292 whole entry)

[4] = biological target: T1, Arachidonate 5-lipoxygenase-activating protein; assay: as §1; type: tissue-based
[5] = Intrinsic clearance in cryopreserved human hepatocytes assessed as per million cells at 1 uM measured up to 60 mins by LC-MS/MS analysis; type: ADME, cell-based, Hepatocyte; conditions: read-out: CLH
[6] = Metabolic stability in human hepatocytes assessed as parent compound remaining; type: ADME, cell-based, Hepatocyte
[7] = Clearance in po or iv dosed Sprague-Dawley rat; type: ADME, organism-based; conditions: in vivo
[8] = Volume of distribution at steady state in po or iv dosed Sprague-Dawley rat; type: ADME, organism-based; conditions: in vivo, read-out: Vdss
[9] = Half-life in po or iv dosed Sprague-Dawley rat; type: ADME, organism-based; conditions: in vivo
[10] = Bioavailability in po dosed Sprague-Dawley rat; type: ADME, organism-based; conditions: in vivo
[11] = Protein binding in human plasma assessed as unbound fraction by LC-MS based equilibrium dialysis analysis; type: ADME, cell-free
[12] = Protein binding in Sprague-Dawley rat plasma assessed as unbound fraction by LC-MS based equilibrium dialysis analysis; type: ADME, cell-free
[13] = biological target: T2, Arachidonate 5-lipoxygenase-activating protein (Homo sapiens); assay: (§2) Inhibition of FLAP in human whole blood assessed as reduction in calcium ionophore-stimulated LTB4 production preincubated for 4 hrs followed by calcium ionophore stimulation and measured after 20 mins by EIA; type: tissue-based
[14] = biological target: T1, Arachidonate 5-lipoxygenase-activating protein; assay: as §2; type: tissue-based
[15] = biological target: Cytochrome P450 2C9 (Homo sapiens, UniProt P11712); assay: Inhibition of recombinant human CYP2C9 expressed in Escherichia coli assessed as maximum reduction in metabolite formation using coumarin based substrate by fluorescence assay; type: ADME
Chain of Cytochrome P450 2C9 (P11712 whole entry): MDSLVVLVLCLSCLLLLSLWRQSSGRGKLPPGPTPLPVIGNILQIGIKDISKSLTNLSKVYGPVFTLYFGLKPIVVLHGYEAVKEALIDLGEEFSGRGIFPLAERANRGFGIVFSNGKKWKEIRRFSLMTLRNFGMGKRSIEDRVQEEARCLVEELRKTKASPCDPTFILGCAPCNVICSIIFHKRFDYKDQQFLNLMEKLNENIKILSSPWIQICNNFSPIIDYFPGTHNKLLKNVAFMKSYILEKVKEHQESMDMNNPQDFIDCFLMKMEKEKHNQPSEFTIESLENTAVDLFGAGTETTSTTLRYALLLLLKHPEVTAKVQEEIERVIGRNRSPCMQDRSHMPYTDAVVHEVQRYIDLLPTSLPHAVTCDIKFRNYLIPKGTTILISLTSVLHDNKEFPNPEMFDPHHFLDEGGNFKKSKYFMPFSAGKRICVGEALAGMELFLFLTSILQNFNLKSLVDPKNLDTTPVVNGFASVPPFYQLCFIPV

[16] = Apparent permeability across apical to basolateral side in human Caco2 cells; conditions: Caco-2
[17] = biological target: Voltage-gated inwardly rectifying potassium channel KCNH2 (Homo sapiens, UniProt Q12809); assay: Inhibition of human ERG by high-throughput electrophysiology assay
Chain of Voltage-gated inwardly rectifying potassium channel KCNH2 (Q12809 whole entry): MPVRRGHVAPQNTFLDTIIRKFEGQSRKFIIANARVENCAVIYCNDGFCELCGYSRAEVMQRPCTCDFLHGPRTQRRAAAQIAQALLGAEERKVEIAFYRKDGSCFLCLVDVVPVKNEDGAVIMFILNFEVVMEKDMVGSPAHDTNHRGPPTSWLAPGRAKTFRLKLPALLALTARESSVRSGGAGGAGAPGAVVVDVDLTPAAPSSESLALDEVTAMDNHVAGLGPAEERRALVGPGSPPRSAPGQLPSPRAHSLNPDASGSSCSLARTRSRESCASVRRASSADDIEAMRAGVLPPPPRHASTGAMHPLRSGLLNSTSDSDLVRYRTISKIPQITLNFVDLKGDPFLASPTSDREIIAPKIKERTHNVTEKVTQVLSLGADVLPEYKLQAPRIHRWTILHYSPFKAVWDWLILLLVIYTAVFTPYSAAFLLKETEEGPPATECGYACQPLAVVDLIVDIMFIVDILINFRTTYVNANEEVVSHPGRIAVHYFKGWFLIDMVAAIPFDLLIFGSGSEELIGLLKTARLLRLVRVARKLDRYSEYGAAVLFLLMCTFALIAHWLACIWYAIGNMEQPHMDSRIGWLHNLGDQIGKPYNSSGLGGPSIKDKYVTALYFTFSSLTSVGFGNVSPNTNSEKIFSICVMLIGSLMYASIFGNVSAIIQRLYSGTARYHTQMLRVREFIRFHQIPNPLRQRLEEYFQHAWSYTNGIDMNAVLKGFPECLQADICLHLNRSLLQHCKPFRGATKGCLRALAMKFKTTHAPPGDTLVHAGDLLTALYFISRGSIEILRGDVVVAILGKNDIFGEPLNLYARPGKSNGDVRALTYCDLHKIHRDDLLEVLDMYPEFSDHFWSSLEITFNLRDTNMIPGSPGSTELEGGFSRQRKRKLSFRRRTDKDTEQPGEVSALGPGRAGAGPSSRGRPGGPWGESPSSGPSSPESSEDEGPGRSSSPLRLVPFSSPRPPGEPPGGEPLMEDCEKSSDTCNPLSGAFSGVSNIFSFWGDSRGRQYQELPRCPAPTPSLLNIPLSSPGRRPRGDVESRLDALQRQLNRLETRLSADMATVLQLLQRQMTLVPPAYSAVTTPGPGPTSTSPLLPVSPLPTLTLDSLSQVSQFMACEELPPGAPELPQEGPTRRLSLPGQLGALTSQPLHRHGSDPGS

[18] = physchem; conditions: phosphate buffer, pH 7.4
Description: Aqueous solubility in pH 7.4 phosphate buffer after 24 hrs by UPLC/MS/MS analysis

[19] = biological target: CYP450 (Homo sapiens, UniProt P04798+P05177+P05181+P08684+P10632+P10635+P11509+P11712+P13584+P20813+P20815+P20853+P24462+P24903+P33260+P33261+P51589+P78329+P98187+Q02928+Q08477+Q16678+Q16696+Q5TCH4+Q6VVX0+Q7Z449+Q8TAV3+Q96SQ9+Q9HB55); assay: Inhibition of CYP450 assessed as maximum reduction in metabolite formation using coumarin based substrate by fluorescence assay; type: ADME, protein assay; conditions: probe coumarin based substrate
[20] = biological target: Cytochrome P450 3A4 (Homo sapiens, UniProt P08684); assay: Inhibition of recombinant human CYP3A4 expressed in Escherichia coli assessed as maximum reduction in metabolite formation using coumarin based substrate by fluorescence assay
Chain of Cytochrome P450 3A4 (P08684 whole entry): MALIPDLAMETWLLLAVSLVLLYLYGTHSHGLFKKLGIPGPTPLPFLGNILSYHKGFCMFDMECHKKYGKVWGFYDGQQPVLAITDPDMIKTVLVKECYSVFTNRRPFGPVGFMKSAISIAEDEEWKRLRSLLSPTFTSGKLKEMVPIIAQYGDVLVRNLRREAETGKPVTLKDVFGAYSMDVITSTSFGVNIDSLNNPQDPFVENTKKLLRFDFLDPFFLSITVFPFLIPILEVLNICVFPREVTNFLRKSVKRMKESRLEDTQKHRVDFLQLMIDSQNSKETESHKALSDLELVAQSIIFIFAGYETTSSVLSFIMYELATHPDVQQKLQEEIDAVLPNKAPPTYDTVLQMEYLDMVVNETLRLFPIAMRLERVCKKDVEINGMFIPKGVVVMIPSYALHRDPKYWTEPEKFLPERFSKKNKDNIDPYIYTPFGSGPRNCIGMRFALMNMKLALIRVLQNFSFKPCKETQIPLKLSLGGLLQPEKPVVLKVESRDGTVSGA

[21] = biological target: hERG (KCNH2) (Homo sapiens, UniProt Q12809); assay: Inhibition of human ERG at 10 uM high-throughput electrophysiology assay relative to control
Chain of hERG (KCNH2) (Q12809 whole entry): as the sequence (Q12809 whole entry) above

logD [1] | IC50 [2] [µM] | fpIC50 [3] | IC50 [4] [µM] | hepatocyte CLint at 1 µM [5] [µL/min/1e6 cells] | Papp A→B [16] [nm/s] | solubility at 24 h [18] [µM] | Structure (SMILES) | also measured
2.5 | 25.1 | 5.1 | 31.6 | – | – | – | Cc1nn(C)cc1NC(=O)[C@@H]1CCCC[C@H]1C(=O)c1ccc(-c2ccnn2C)cc1 (racemic) | –
– | – | 7.4 | – | – | – | – | Cc1nn(C)cc1NC(=O)[C@@H]1CCCC[C@H]1C(=O)c1ccc(-c2cc[nH]n2)cc1 [listing 1 of 2 here] | –
– | 0.0251 | 8.5 | 0.0501 | 12 | – | – | Cn1cc(NC(=O)[C@@H]2CCCC[C@H]2C(=O)c2ccc(-c3cc[nH]n3)cc2)c(C(F)(F)F)n1 | Stability [6]: 62%; clearance [7]: 0.408 L/h/kg; Vd [8]: 1 L/kg; half-life [9]: 1.6 h; bioavailability [10]: 62%; fraction unbound [11]: 0.063; fraction unbound [12]: 0.054
1.8 | 1 | 5.8 | 3.98 | – | – | – | Cc1nn(C)cc1NC(=O)[C@@H]1CCCC[C@H]1C(=O)c1ccc(-c2cc[nH]n2)nc1 (racemic) | –
– | 0.2 | – | 0.501 | 6 | – | – | Cc1noc(C)c1NC(=O)[C@@H]1CCCC[C@H]1C(=O)c1ccc(-c2cc[nH]n2)cc1 (racemic) | –
3.4 | 0.0794 | – | – | 13 | 70 | 27 (≈ 12.1 µg/mL) | Cc1cc(-c2ccc3c([C@@H]4CCCC[C@H]4C(=O)Nc4cn(C)nc4C(N)=O)noc3c2)n[nH]1 | fpIC50 [13]: 8.5; IC50 [14]: 0.0631 µM; IC50 [15]: 7.94 µM; IC50 [17]: > 31.6 µM; Stability [6]: 68%
– | 0.0501 | – | 0.2 | – | – | – | Cc1nn(C)cc1NC(=O)[C@@H]1CCCC[C@H]1C(=O)c1ccc(-c2cc[nH]n2)cc1 [listing 2 of 2 here] | –
3.6 | 0.316 | 7.4 | 2 | – | – | – | Cc1cnn(-c2ccc(C(=O)[C@@H]3CCCC[C@H]3C(=O)Nc3cccc(C(N)=O)c3)cc2)c1 (racemic) | –
3 | 0.251 | 6.7 | 2.51 | – | – | – | O=C(NCCc1ccccn1)[C@@H]1CCCC[C@H]1C(=O)c1ccc(-c2cc[nH]n2)cc1 | –
3.1 | – | – | – | 12 | 220 | 60 (≈ 26.1 µg/mL) | Cc1cc(-c2ccc(C(=O)[C@@H]3CCCC[C@H]3C(=O)Nc3cn(C)nc3C(N)=O)cc2)n[nH]1 | IC50 [15]: 10 µM; IC50 [17]: > 31.6 µM; Stability [6]: 79%; clearance [7]: 0.33 L/h/kg; Vd [8]: 0.64 L/kg; half-life [9]: 1.4 h; bioavailability [10]: 40%; fraction unbound [11]: 0.076; fraction unbound [12]: 0.024
2.9 | 0.0316 | 8.4 | 0.0398 | 5 | 120 | 60 (≈ 24.9 µg/mL) | O=C(Nc1cnn2cccnc12)[C@@H]1CCCC[C@H]1C(=O)c1ccc(-c2cc[nH]n2)cc1 | IC50 [19]: > 20 µM; IC50 [17]: > 31.6 µM
– | – | 7.1 | – | – | – | – | Cc1nn(C)cc1NC(=O)[C@@H]1CCCC[C@H]1C(=O)c1ccc(-c2cc[nH]n2)cc1 (racemic) [listing 1 of 2 here] | –
– | – | 8.5 | – | – | – | – | Cn1cc(NC(=O)[C@@H]2CCCC[C@H]2C(=O)c2ccc(-c3cc[nH]n3)cc2)c(OC(F)F)n1 | –
3 | 0.2 | 7.5 | 0.251 | – | – | – | Cc1nn(C)cc1N(C)C(=O)[C@@H]1CCCC[C@H]1C(=O)c1ccc(-c2cc[nH]n2)cc1 | –
3.7 | 0.0126 | 9 | 0.0251 | 13 | 570 | 27 (≈ 12.4 µg/mL) | Cn1cc(NC(=O)[C@@H]2C[C@@H]3C[C@@H]3C[C@H]2C(=O)c2ccc(-c3cc[nH]n3)cc2)c(C(F)(F)F)n1 | IC50 [20]: 3.98 µM; Stability [6]: 76%
3.1 | 1 | – | – | – | – | – | Cc1nn(C)cc1NC(=O)[C@@H]1CCCC[C@H]1C(=O)c1ccc(-c2ccc[nH]2)cc1 (racemic) | –

logD [1] | IC50 [2] [µM] | fpIC50 [3] | IC50 [4] [µM] | hepatocyte CLint at 1 µM [5] [µL/min/1e6 cells] | Papp A→B [16] [nm/s] | solubility at 24 h [18] [µM] | Structure (SMILES) | also measured
2.1 | 0.0631 | – | – | – | – | – | CC(C)(CNC(=O)[C@@H]1CCCC[C@H]1C(=O)c1ccc(-c2cc[nH]n2)cc1)S(C)(=O)=O | fpIC50 [13]: 7.4; IC50 [14]: 0.126 µM
2.8 | 0.501 | 6.8 | 2 | – | – | – | Cc1nn(C)cc1NC(=O)[C@@H]1CCCC[C@H]1C(=O)c1ccc(-c2ccccn2)cc1 (racemic) | –
3.7 | 0.0126 | 8.5 | 0.0501 | 12 | 590 | 63 (≈ 28.8 µg/mL) | Cn1ncc(NC(=O)[C@@H]2C[C@@H]3C[C@@H]3C[C@H]2C(=O)c2ccc(-c3cc[nH]n3)cc2)c1C(F)(F)F | IC50 [15]: 5.01 µM; clearance [7]: 0.588 L/h/kg; Vd [8]: 1.1 L/kg; half-life [9]: 1.4 h; bioavailability [10]: 100%; fraction unbound [11]: 0.066; fraction unbound [12]: 0.04
3.5 | – | 8.3 | – | 18 | 170 | 31 (≈ 14 µg/mL) | Cc1cc(-c2ccc(C(=O)[C@@H]3CCCC[C@H]3C(=O)Nc3cn(C)nc3C(N)=O)c(F)c2)[nH]n1 | IC50 [20]: 6.31 µM; IC50 [17]: > 31.6 µM
– | 2 | 5.8 | 7.94 | – | – | – | Cc1nn(C)cc1NC(=O)[C@H]1CCCC[C@@H]1C(=O)c1ccc(-c2cc[nH]n2)cc1 | –
4 | 0.0631 | 7.1 | 0.2 | – | – | – | Cc1nn(C)cc1NC(=O)[C@@H]1[C@H]2CC[C@H](CC2)[C@H]1C(=O)c1ccc(-c2cc[nH]n2)cc1F (racemic) | –
3.5 | 0.0398 | – | – | 16 | 230 | 12 (≈ 5.51 µg/mL) | Cc1cc(-c2ccc3c([C@@H]4C[C@H]5C[C@H]5C[C@H]4C(=O)Nc4cn(C)nc4C(N)=O)noc3c2)n[nH]1 | fpIC50 [13]: 8.5; IC50 [14]: 0.126 µM; IC50 [20]: 3.16 µM; inhibition at 10 µM [21]: 12%; Stability [6]: 69%
3.9 | 2.51 | – | – | – | – | – | CC(=O)c1cccc(-c2ccc(C(=O)[C@@H]3CCCC[C@H]3C(=O)Nc3c(C)noc3C)cc2)c1 (racemic) | –
– | – | 7.9 | – | – | – | – | Cc1cc(-c2ccc(C(=O)[C@@H]3CCCC[C@H]3C(=O)Nc3cn(C)nc3C(N)=O)cc2)[nH]n1 | –
3 | 1 | 6.9 | 0.794 | – | – | – | Cc1cc(-c2cc[nH]n2)ccc1C(=O)[C@@H]1CCCC[C@H]1C(=O)Nc1cn(C)nc1C (racemic) | –
3.9 | 0.0158 | 9.3 | 0.0158 | 22 | 690 | 22 (≈ 8.92 µg/mL) | COc1cc(NC(=O)[C@@H]2CCCC[C@H]2C(=O)c2ccc(-c3cc[nH]n3)cc2)ncn1 | IC50 [15]: 5.01 µM; IC50 [17]: 12.6 µM
2.6 | 0.0794 | – | 0.501 | < 4 | 260 | 92 (≈ 36 µg/mL) | Cc1nn(C)cc1NC(=O)[C@@H]1CCCC[C@H]1C(=O)c1ccc(-c2cc[nH]n2)cc1 (racemic) [listing 2 of 2 here] | IC50 [19]: > 20 µM; IC50 [17]: > 12.6 µM
2.9 | 0.126 | 8 | 0.0631 | 14 | 340 | 500 (≈ 205 µg/mL) | Cc1nn(C)cc1NC(=O)[C@@H]1CCCC[C@H]1C(=O)c1ccc(-c2cc[nH]n2)cc1F (racemic) | IC50 [19]: > 20 µM; IC50 [17]: > 12.6 µM; clearance [7]: 0.798 L/h/kg; Vd [8]: 1.1 L/kg; half-life [9]: 1.2 h; bioavailability [10]: 85%; fraction unbound [11]: 0.14; fraction unbound [12]: 0.11
3.6 | 0.0398 | 8.4 | 0.0501 | 7 | 590 | 80 (≈ 35.6 µg/mL) | Cn1ncc(NC(=O)[C@@H]2CCCC[C@H]2C(=O)c2ccc(-c3cc[nH]n3)cc2)c1C(F)(F)F | IC50 [15]: 6.31 µM; inhibition at 10 µM [21]: 32%; Stability [6]: 83%; clearance [7]: 0.288 L/h/kg; Vd [8]: 0.97 L/kg; half-life [9]: 3 h; bioavailability [10]: 100%; fraction unbound [11]: 0.075; fraction unbound [12]: 0.042
3.1 | 1 | – | – | – | – | – | Cc1c[nH]nc1-c1ccc(C(=O)[C@@H]2CCCC[C@H]2C(=O)Nc2cn(C)nc2C)cc1 (racemic) | –
